# PubChem BioAssay AID1963863 (Molecular Pharmacology Branch, DTP, NCI, 2024)
# Test system: 931267-113-T-J1-PDC KRAS spheroid with HUVEC/MSC, viability
# Assay: Anticancer human tumor 931267-113-T-J1-PDC patient-derived colon adenocarcinoma cell line growth inhibition [KRAS2]
# Details: for viability, T/C: stronger effect = lower value
# Outline: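 Combination screen of spheroid viability in tumor-cell co-cultures with endothelial (HUVEC) and mesenchymal stem cell stroma. Each agent was tested in half-log dilutions, topping at clinical Cmax or at 10 microM without a known Cmax.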
# [1] = curve of first compound, second compound 0.1 µM
# [2] = curve of first compound, second compound 0.316 µM
# [3] = curve of first compound, second compound 1 µM
# [4] = curve of first compound, second compound 3.16 µM
# [5] = curve of first compound, second compound 10 µM
# [6] = second compound 0.1 µM, first compound 0.0001 µM
# [7] = second compound 0.1 µM, first compound 0.000316 µM
# [8] = second compound 0.1 µM, first compound 0.001 µM
# [9] = second compound 0.1 µM, first compound 0.00316 µM
# [10] = second compound 0.1 µM, first compound 0.01 µM
# [11] = second compound 0.1 µM, first compound 0.0316 µM
# [12] = second compound 0.316 µM, first compound 0.0001 µM
# [13] = second compound 0.316 µM, first compound 0.000316 µM
# [14] = second compound 0.316 µM, first compound 0.001 µM
# [15] = second compound 0.316 µM, first compound 0.00316 µM
# [16] = second compound 0.316 µM, first compound 0.01 µM
# [17] = second compound 0.316 µM, first compound 0.0316 µM
# [18] = second compound 1 µM, first compound 0.0001 µM
# [19] = second compound 1 µM, first compound 0.000316 µM
# [20] = second compound 1 µM, first compound 0.001 µM
# [21] = second compound 1 µM, first compound 0.00316 µM
# [22] = second compound 1 µM, first compound 0.01 µM
# [23] = second compound 1 µM, first compound 0.0316 µM
# [24] = second compound 3.16 µM, first compound 0.0001 µM
# [25] = second compound 3.16 µM, first compound 0.000316 µM
# [26] = second compound 3.16 µM, first compound 0.001 µM
# [27] = second compound 3.16 µM, first compound 0.00316 µM
# [28] = second compound 3.16 µM, first compound 0.01 µM
# [29] = second compound 3.16 µM, first compound 0.0316 µM
# [30] = second compound 10 µM, first compound 0.0001 µM
# [31] = second compound 10 µM, first compound 0.000316 µM
# [32] = second compound 10 µM, first compound 0.001 µM
# [33] = second compound 10 µM, first compound 0.00316 µM
# [34] = second compound 10 µM, first compound 0.01 µM
# [35] = second compound 10 µM, first compound 0.0316 µM
# [36] = second compound 0.1 µM, first compound 0.1 µM
# [37] = second compound 0.1 µM, first compound 0.316 µM
# [38] = second compound 0.1 µM, first compound 1 µM
# [39] = second compound 0.316 µM, first compound 0.1 µM
# [40] = second compound 0.316 µM, first compound 0.316 µM
# [41] = second compound 0.316 µM, first compound 1 µM
# [42] = second compound 1 µM, first compound 0.1 µM
# [43] = second compound 1 µM, first compound 0.316 µM
# [44] = second compound 1 µM, first compound 1 µM
# [45] = second compound 3.16 µM, first compound 0.1 µM
# [46] = second compound 3.16 µM, first compound 0.316 µM
# [47] = second compound 3.16 µM, first compound 1 µM
# [48] = second compound 0.1 µM, first compound 3.16 µM
# [49] = second compound 0.316 µM, first compound 3.16 µM
# [50] = second compound 1 µM, first compound 3.16 µM
# [51] = second compound 3.16 µM, first compound 3.16 µM
# [52] = second compound 10 µM, first compound 0.1 µM
# [53] = second compound 10 µM, first compound 0.316 µM
# [54] = second compound 10 µM, first compound 1 µM
# [55] = second compound 10 µM, first compound 3.16 µM
# 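Note: compound exposure lasted 7 days before the readout.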
# 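Throughout, for viability, T/C: 100% = DMSO vehicle control viability.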
compound,measurement,setting,value
CC(=O)Nc1cccc(-n2c(=O)n(C3CC3)c(=O)c3c(Nc4ccc(I)cc4F)n(C)c(=O)c(C)c32)c1 + C=CC(=O)N1CCN(c2nc(=O)n(-c3c(C)ccnc3C(C)C)c3nc(-c4c(O)cccc4F)c(F)cc23)C(C)C1,IC50,[1],10.5 nM
same,IC50,[2],9.41 nM
same,IC50,[3],11.3 nM
same,IC50,[4],31.6 nM
same,IC50,[5],2.79 nM
same,"viability, T/C",[6],88.7%
same,"viability, T/C",[7],81.9%
same,"viability, T/C",[8],66.7%
same,"viability, T/C",[9],60.1%
same,"viability, T/C",[10],62.9%
same,"viability, T/C",[11],9.67%
same,"viability, T/C",[12],97.1%
same,"viability, T/C",[13],94.5%
same,"viability, T/C",[14],74.1%
same,"viability, T/C",[15],71.3%
same,"viability, T/C",[16],53.8%
same,"viability, T/C",[17],10.6%
same,"viability, T/C",[18],88.5%
same,"viability, T/C",[19],97.4%
same,"viability, T/C",[20],93.9%
same,"viability, T/C",[21],59.5%
same,"viability, T/C",[22],62.6%
same,"viability, T/C",[23],12.9%
same,"viability, T/C",[24],123%
same,"viability, T/C",[25],99%
same,"viability, T/C",[26],62.8%
same,"viability, T/C",[27],54%
same,"viability, T/C",[28],64.7%
same,"viability, T/C",[29],19.6%
same,"viability, T/C",[30],85.8%
same,"viability, T/C",[31],82.4%
same,"viability, T/C",[32],49.1%
same,"viability, T/C",[33],50.9%
same,"viability, T/C",[34],44.7%
same,"viability, T/C",[35],28.3%
COc1cc2nc(C)nc(NC(C)c3cc(N)cc(C(F)(F)F)c3)c2cc1OC1CCOC1 (configuration not stated),IC50,"compound alone, run of 08/26/2021",4.74 µM [middle of 4 runs]
same,IC50,"compound alone, run of 09/02/2021",4.4 µM [middle of 6 runs]
CC(=O)Nc1cccc(-n2c(=O)n(C3CC3)c(=O)c3c(Nc4ccc(I)cc4F)n(C)c(=O)c(C)c32)c1 + CC1OCC2(CCN(c3cnc(Sc4ccnc(N)c4Cl)c(N)n3)CC2)C1N,IC50,[1],8.08 nM
same,IC50,[2],9.27 nM
same,IC50,[3],3.37 nM
same,IC50,[4],0.951 nM
same,IC50,[5],0.274 nM
same,"viability, T/C",[6],92%
same,"viability, T/C",[7],81.6%
same,"viability, T/C",[8],68.2%
same,"viability, T/C",[9],56.1%
same,"viability, T/C",[10],62.2%
same,"viability, T/C",[11],20.1%
same,"viability, T/C",[12],60.2%
same,"viability, T/C",[13],54.3%
same,"viability, T/C",[14],71.8%
same,"viability, T/C",[15],48.9%
same,"viability, T/C",[16],51.7%
same,"viability, T/C",[17],7.58%
same,"viability, T/C",[18],67.7%
same,"viability, T/C",[19],69.5%
same,"viability, T/C",[20],53.9%
same,"viability, T/C",[21],50.8%
same,"viability, T/C",[22],37.7%
same,"viability, T/C",[23],6.56%
same,"viability, T/C",[24],59.7%
same,"viability, T/C",[25],61.5%
same,"viability, T/C",[26],46.9%
same,"viability, T/C",[27],38.7%
same,"viability, T/C",[28],26.9%
same,"viability, T/C",[29],7.86%
same,"viability, T/C",[30],60.8%
same,"viability, T/C",[31],47.9%
same,"viability, T/C",[32],31.8%
same,"viability, T/C",[33],35%
same,"viability, T/C",[34],12.3%
same,"viability, T/C",[35],2.06%
CCN1CCN(Cc2ccc(Nc3ncc(F)c(-c4cc(F)c5nc(C)n(C(C)C)c5c4)n3)nc2)CC1 + C=CC(=O)N1CCN(c2nc(OCC3CCCN3C)nc3c2CCN(c2cccc4cccc(C)c24)C3)CC1CC#N,IC50,"curve of first compound, second compound 0.0316 µM",> 1000 nM
same,IC50,[1],549 nM
same,IC50,[2],> 1000 nM
same,IC50,[3],734 nM
same,IC50,[4],< 3.16 nM
same,"viability, T/C","second compound 0.0316 µM, first compound 0.00316 µM",108%
same,"viability, T/C","second compound 0.0316 µM, first compound 0.01 µM",86%
same,"viability, T/C","second compound 0.0316 µM, first compound 0.0316 µM",70.7%
same,"viability, T/C","second compound 0.0316 µM, first compound 0.1 µM",67.8%
same,"viability, T/C","second compound 0.0316 µM, first compound 0.316 µM",65.7%
same,"viability, T/C","second compound 0.0316 µM, first compound 1 µM",54%
same,"viability, T/C",[9],83.8%
same,"viability, T/C",[10],72.2%
same,"viability, T/C",[11],68.2%
same,"viability, T/C",[36],67.4%
same,"viability, T/C",[37],61.8%
same,"viability, T/C",[38],39.7%
same,"viability, T/C",[15],93.7%
same,"viability, T/C",[16],84.2%
same,"viability, T/C",[17],64.3%
same,"viability, T/C",[39],60%
same,"viability, T/C",[40],64.6%
same,"viability, T/C",[41],48.6%
same,"viability, T/C",[21],73.8%
same,"viability, T/C",[22],74.2%
same,"viability, T/C",[23],77.3%
same,"viability, T/C",[42],82.4%
same,"viability, T/C",[43],61.2%
same,"viability, T/C",[44],45.9%
same,"viability, T/C",[27],0.66%
same,"viability, T/C",[28],2.55%
same,"viability, T/C",[29],0.2%
same,"viability, T/C",[45],0.23%
same,"viability, T/C",[46],0.3%
same,"viability, T/C",[47],0.21%
CC(C)NCC(C(=O)N1CCN(c2ncnc3c2C(C)CC3O)CC1)c1ccc(Cl)cc1 (configuration not stated) + CC1OCC2(CCN(c3cnc(Sc4ccnc(N)c4Cl)c(N)n3)CC2)C1N,IC50,[1],3560 nM
same,IC50,[2],3720 nM
same,IC50,[3],5160 nM
same,IC50,[4],1850 nM
same,IC50,[5],2270 nM
same,"viability, T/C",[11],78.8%
same,"viability, T/C",[36],71.7%
same,"viability, T/C",[37],87%
same,"viability, T/C",[38],64.4%
same,"viability, T/C",[48],53.3%
same,"viability, T/C","second compound 0.1 µM, first compound 10 µM",37.3%
same,"viability, T/C",[17],86.4%
same,"viability, T/C",[39],73.5%
same,"viability, T/C",[40],81.7%
same,"viability, T/C",[41],75.2%
same,"viability, T/C",[49],53%
same,"viability, T/C","second compound 0.316 µM, first compound 10 µM",32.2%
same,"viability, T/C",[23],95%
same,"viability, T/C",[42],56.9%
same,"viability, T/C",[43],75.5%
same,"viability, T/C",[44],59.4%
same,"viability, T/C",[50],63.7%
same,"viability, T/C","second compound 1 µM, first compound 10 µM",39%
same,"viability, T/C",[29],78.2%
same,"viability, T/C",[45],77.3%
same,"viability, T/C",[46],74.4%
same,"viability, T/C",[47],56.3%
same,"viability, T/C",[51],44.6%
same,"viability, T/C","second compound 3.16 µM, first compound 10 µM",35%
same,"viability, T/C",[35],73.8%
same,"viability, T/C",[52],67.9%
same,"viability, T/C",[53],76.7%
same,"viability, T/C",[54],52.8%
same,"viability, T/C",[55],48.8%
same,"viability, T/C","second compound 10 µM, first compound 10 µM",22.5%
CC1COCCN1c1cc(-c2ccnn2C)c2ccnc(-c3ccn[nH]3)c2n1 (configuration not stated) + C=CC(=O)N1CCN(c2nc(=O)n(-c3c(C)ccnc3C(C)C)c3nc(-c4c(O)cccc4F)c(F)cc23)C(C)C1,IC50,[1],42 nM
same,IC50,[2],50.4 nM
same,IC50,[3],44.4 nM
same,IC50,[4],53.5 nM
same,IC50,[5],28.1 nM
same,"viability, T/C",[10],95.5%
same,"viability, T/C",[11],58%
same,"viability, T/C",[36],25.9%
same,"viability, T/C",[37],17.3%
same,"viability, T/C",[38],20%
same,"viability, T/C",[48],19.7%
same,"viability, T/C",[16],90.1%
same,"viability, T/C",[17],68.7%
same,"viability, T/C",[39],22.5%
same,"viability, T/C",[40],18.1%
same,"viability, T/C",[41],19.9%
same,"viability, T/C",[49],20.4%
same,"viability, T/C",[22],122%
same,"viability, T/C",[23],59.5%
same,"viability, T/C",[42],27.5%
same,"viability, T/C",[43],21.1%
same,"viability, T/C",[44],22.1%
same,"viability, T/C",[50],22.6%
same,"viability, T/C",[28],117%
same,"viability, T/C",[29],71.4%
same,"viability, T/C",[45],24.8%
same,"viability, T/C",[46],18.4%
same,"viability, T/C",[47],21.8%
same,"viability, T/C",[51],22.1%
same,"viability, T/C",[34],92.8%
same,"viability, T/C",[35],45.1%
same,"viability, T/C",[52],24.1%
same,"viability, T/C",[53],23.9%
same,"viability, T/C",[54],24.2%
same,"viability, T/C",[55],19.9%
